Key:
[1] = test system: Male Long-Evans rats (tail flick, thermal nociception); test: Rat tail flick test, single intravenous injection; format: in vivo; conditions: for tail flick latency (MPE) compared with same dose of WIN alone: i.v. single injection
Procedure: (§1) Male Long-Evans rats (N=175) from Charles River (Montreal, QC, Canada) ranging from 230-380 grams, were housed in polycarbonate cages in pairs and given free access to food (Lab Diet, PMI Nutrition International, Inc., Brentwood, Mo., USA) and water. Animal quarters were kept on a reverse light-dark cycle (lights on from 7 pm to 7 am) and maintained at 22±2° C. and 45±20% relative humidity. Animals were given a minimum of 3 days prior to the experiment to acclimatize to the animal quarters.
(§2) All injections were administered in a volume of 1 ml/kg. All chemicals were dissolved in 5% dimethyl sulfoxide (DMSO; Sigma, Oakville, ON, Canada), 0.3% polyoxyethylenesorbitan monooleate (Tween® 80; Sigma, Oakville, ON, Canada) and 94.7% saline vehicle, and administered intravenously in the posterior ⅓ of the lateral tail vein.
For single injection testing, vehicle alone was used as a control injection (n=8).
(§3) The tail flick apparatus consisted of a projection lamp that creates radiant heat located just below the animal-testing surface (D'Amour, E. E. and Smith, D. L. J. Pharmacol. Exp. Ther. 1941 72:74-79). The light from the lamp projected through a small hole in the testing surface and was aimed at a photocell located 25 cm above the testing surface. A digital timer, connected to the apparatus, started when the heat source was activated. When the animal flicked its tail away from the heat source, the light from the projection lamp activated the photocell, simultaneously stopping the timer and turning off the lamp. The heat intensity was calibrated to result in baseline tail flick latencies of 2-3 seconds and a 10 second cutoff was used to minimize tissue damage.
Nociceptive reflexes to a thermal stimulus were tested using the tail flick analgesia meter. This apparatus focuses a hot beam on the animal's tail. The time it takes for the rat to flick its tail away from the heat source is a measure of pain; the longer the animal leaves its tail on the hotspot, the greater the degree of pain relief. On the day prior to tail flick testing, animals were handled on the tail flick apparatus for 5-10 minutes to reduce stress-induced analgesia (Kelly, S. J. and Franklin, K. B., Neuropharmacology 1985 24:1019-1025; Terman et al., Science 1984 226:1270-1277). For single injection tested groups, animals were restrained in a small towel and a baseline tail flick latency was measured. Following the baseline measure, animals were given a drug injection and tail flick latencies were assessed every 10 minutes for 90 minutes. For the repeated injection groups, animals were given one drug injection every day for seven days. Prior to the first injection, a baseline tail flick latency was measured. Following this measure, animals were given a drug injection and tail flick latencies were assessed 10 minutes post-injection. […] Post injection tail flick latencies were assessed on days 1, 3, 5, and 7. For all animals, tail flick latencies were converted into a percent of maximal possible effect (MPE) using the equation: MPE=[(post-injection latency−baseline latency)/(10 s cutoff−baseline latency)]×100
(§4) Separate two-way repeated measure ANOVAs were performed on the single injection groups, and repeated injection groups (see Example 2). Post-injection time (10-90 minutes for single injection groups) or day of injection (1-7 days for the repeated injection groups) were the within-subjects factors and drug group was the between-subjects factor. Whenever there were violations of sphericity, Huynh-Feldt corrections to the within-group degrees of freedom were reported. Because many drug group comparisons were irrelevant, a priori multiple comparisons were used to analyze the main drug effect using the Dunn's critical t-ratio. A corrected α of 0.005 was used for the single injection groups because there were 8 comparisons, and a corrected α of 0.01 was used for the repeated injection groups because there were 4 comparisons.

[2] = test system: Male Long-Evans rats (tail flick, thermal nociception); test: Rat tail flick test, repeated daily injections for 7 days (tolerance); format: in vivo; conditions: for tail flick latency thresholds compared with WIN alone: i.v. daily for 7 days
Procedure: as §1, §2
For repeated injection testing, vehicle alone was used as a control injection (n=8). […] The control group received 1.1 ng/kg ultra-low dose of SR alone.
as §3
Nociceptive reflexes to a thermal stimulus were tested using the tail flick analgesia meter. This apparatus focuses a hot beam on the animal's tail. The time it takes for the rat to flick its tail away from the heat source is a measure of pain; the longer the animal leaves its tail on the hotspot, the greater the degree of pain relief. On the day prior to tail flick testing, animals were handled on the tail flick apparatus for 5-10 minutes to reduce stress-induced analgesia (Kelly, S. J. and Franklin, K. B., Neuropharmacology 1985 24:1019-1025; Terman et al., Science 1984 226:1270-1277). For single injection tested groups, animals were restrained in a small towel and a baseline tail flick latency was measured. Following the baseline measure, animals were given a drug injection and tail flick latencies were assessed every 10 minutes for 90 minutes. For the repeated injection groups, animals were given one drug injection every day for seven days. Prior to the first injection, a baseline tail flick latency was measured. Following this measure, animals were given a drug injection and tail flick latencies were assessed 10 minutes post-injection. This time point was selected because it is the point at which maximal WIN-induced antinociception is detected in this protocol. Post injection tail flick latencies were assessed on days 1, 3, 5, and 7. For all animals, tail flick latencies were converted into a percent of maximal possible effect (MPE) using the equation: MPE=[(post-injection latency−baseline latency)/(10 s cutoff−baseline latency)]×100
as §4, with “A corrected α of 0.005 was used for the single injection groups because there were 8 comparisons, and a corrected α of 0.01 was used for the repeated injection groups because there were 4 comparisons.” left out

SMILES | tail flick latency (MPE) compared with same dose of WIN alone ([1]; SR 0.055 ng/kg mixed with WIN 0.0625 mg/kg, t(14)=3.28) | tail flick latency (MPE) compared with same dose of WIN alone ([1]; SR 0.083 ng/kg with WIN 0.09375 mg/kg, t(14)=8.16, P≦0.005) | tail flick latency (MPE) compared with same dose of WIN alone ([1]; SR 0.55 ng/kg in combination with WIN 0.0625 mg/kg, t(14)=6.72, P≦0.005) | tail flick latency (MPE) compared with same dose of WIN alone ([1]; SR 0.83 ng/kg with WIN 0.09375 mg/kg, t(14)=9.63, P≦0.005) | antinociceptive properties of WIN in rat tail flick test (FIG. 1A, 1B) ([1]; ultra-low dose SR (0.55, 0.055, 0.83, 0.083 ng/kg) with WIN (0.0625 or 0.09375 mg/kg), single i.v. injection) | tail flick latency thresholds compared with WIN alone ([2]; SR 0.11 ng/kg with WIN 0.125 mg/kg, t(14)=14.35, P≦0.01) | tail flick latency thresholds compared with WIN alone ([2]; SR 1.1 ng/kg with WIN 0.125 mg/kg, t(14)=9.77, P≦0.01) | prevention of WIN-induced tolerance / enhancement of antinociception ([2]; SR to WIN dose ratio 1:100,000) | prevention of WIN-induced tolerance / enhancement of antinociception ([2]; SR to WIN dose ratio 1:1,000,000, slightly (although not significant) better at preventing tolerance) | development of tolerance to the analgesic action of WIN in rat tail flick test (FIG. 2) ([2]; daily ultra-low dose SR (1.1 or 0.11 ng/kg) with WIN 0.125 mg/kg, i.v.) | degree of antinociception in the tail flick test ([1]; rat, in vivo) | tail flick latency (MPE) compared with vehicle ([1]; rat, in vivo) | tail flick latency compared with vehicle ([2]; WIN 0.125 mg/kg i.v. alone, daily for 7 days, tested days 1, 3, 5, 7, t(14)=10.44, P≦0.01) | degree of antinociception in the tail flick test ([2]; WIN alone at 0.125 mg/kg i.v.) | time point post-injection of maximal WIN-induced antinociception ([2]; tail flick, i.v.) [min]
Cc1c(C(=O)NN2CCCCC2)nn(-c2ccc(Cl)cc2Cl)c1-c1ccc(Cl)cc1 [SR, N-(Piperidin-1-yl)-5-(4-chlorophenyl)-1-(2,4-dichlorophenyl)-4-methyl-1H-pyrazole-3-carboxamide] | no difference | longer tail flick latencies | longer tail flick latencies | longer tail flick latencies | enhanced | greater tail flick latency thresholds | greater tail flick latency thresholds | effective | effective | prevented the development of tolerance | – | – | – | – | –
CS(=O)(=O)O.Cc1c(C(=O)c2cccc3ccccc23)c2cccc3c2n1[C@H](CN1CCOCC1)CO3 [WIN, (R)-(+)-[2,3-Dihydro-5-methyl-3-(4-morpholinylmethyl)pyrrolo[1,2,3-de]-1,4-benzoxazin-6-yl]-1-naphthalenylmethanone mesylate] | – | – | – | – | – | – | – | – | – | – | sub-maximal antinociception | no difference | greater tail flick latencies | maximal antinociception | 10

Reference: patent publication US20070060638A1, “Methods and therapies for potentiating therapeutic activities of a cannabinoid receptor agonist via administration of a cannabinoid receptor antagonist” (priority 2005, published 2007)
